The values that follow come from PubChem BioAssay (NCI).

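96-well plates; 48 h exposure; 5 concentrations. Endpoints by linear interpolation between flanking doses. Not reached: highest tested concentration assigned. Here, GI50 denotes the concentration required for 50% inhibition of growth. TGI: total growth inhibition.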

The test system of one experiment is MCF7 breast. Put plainly: NCI-60 cell line screen, 48 h.
As to `COc1cc2c3c(n(C)c(=O)c2cc1OC)-c1cc2c(cc1/C3=C\CCCN)OCO2`, the GI50 is 3.95 µM and the TGI turned out to be 42.8 µM.

As for `Cc1ccc(S(=O)(=O)Nc2ccccc2C(=O)c2ccc(C)c(C)c2)cc1`, the TGI was above 100 µM.

Compound `CC(C)C(C)/C=C\C(C)C1CCC2C3=CC=C4CC(O)CCC4(C)C3CCC21C` (stereo unspecified) had a TGI above 100 µM.

Take `OC(c1nc2ccccc2[nH]1)C(O)C(O)C(O)c1nc2ccccc2[nH]1` (stereo unspecified): the TGI was above 100 µM.

For the compound `CCOC(=O)c1cc2nc3ccccc3c(=O)n2c2ccccc12`, the TGI is above 10 µM.

`Cc1cc(O)c(/C=N/C(=S)NCc2ccccc2)c(=O)o1` gave a TGI above 100 µM.

Take `COc1cc2c3c(n(C)c(=O)c2cc1OC)-c1cc2c(cc1/C3=C\CCN)OCO2`: the GI50 was 0.094 µM and the TGI was determined as 1.3 µM.

A further experiment concerns KM12 colon. The experiment is described as follows: NCI-60 cell line screen, 48 h.
Consider `CN(C(=O)c1ccc(C(F)(F)F)cc1)c1ccc(Oc2ccc3c(c2)cc(C(=O)N2CCN(Cc4ccc(OC(F)F)cc4)CC2)n3C)nc1`, for which the GI50 is 35.9 µM and the TGI is above 100 µM.

As for `Cc1cc(-c2ccc3nc(C4CCOCC4)n(CCOC(F)(F)F)c3c2)cn(C)c1=O`, the GI50 was 0.724 µM and the TGI was determined as 11.4 µM.

As for `Nc1ncnc2c1nnn2C1OC(CO)C(O)C1O` (stereo unspecified), the TGI worked out at 6.68 µM.

With `COc1cc(C2c3cc4c(cc3OC(C)(O)C2C)OCO4)cc(OC)c1OC` (stereo unspecified), the TGI came out at 57.6 µM.

`C[C@@H]1CCC2[C@@H](C)[C@@H](OCC(CO[C@H]3OC4O[C@@]5(C)CC[C@H]6[C@H](C)CCC([C@H]3C)[C@@]46OO5)OC(=O)CCC(=O)O)OC3O[C@@]4(C)CC[C@@H]1[C@]32OO4` (stereo partly specified): the GI50 is below 0.01 µM.

The compound `COc1cc2c(c(OC)c1OC)-c1ccc(OC)c(=O)cc1C(NC(=O)c1ccc(N=[N+]=[N-])cc1)CC2` (stereo unspecified) yielded a TGI of 0.0786 µM.

`COc1ccc([C@H]2[C@@H](F)C(=O)N2c2cc(OC)c(OC)c(OC)c2)cc1F`: the GI50 was 0.0596 µM and the TGI was above 100 µM.

Consider `CC(=O)[C@@]12O[C@@H]1CC1C3CCC4=CC(O)CCC4(C)C3CCC12C` (stereo partly specified), for which the GI50 was 24.7 µM and the TGI was above 100 µM.

Turning to `OCC#Cc1ccccc1C#Cc1ccccc1`, the GI50 was 10.8 µM and the TGI is 22.9 µM.

`NS(=O)(=O)c1cc(Br)c(N=Nc2ccc(O)c3ncccc23)c(Br)c1` displayed a TGI above 100 µM.

For the compound `O=C(/C=C/c1ccncc1)c1cc(Cl)ccc1O`, the GI50 is 15.7 µM and the TGI stood at 32.5 µM.

On to `Cc1cc(/C=C/c2ccc3cc(N(C)C)ccc3[n+]2C)c(C)n1-c1ccccc1`, for which the GI50 was 0.158 µM and the TGI stood at 0.843 µM.

Regarding `COc1cc2c3c(n(C)c(=O)c2cc1OC)-c1cc2c(cc1/C3=C\CCCN)OCO2`, the GI50 was 11 µM and the TGI stood at 84.8 µM.

The compound `Cc1ccc(S(=O)(=O)Nc2ccccc2C(=O)c2ccc(C)c(C)c2)cc1` displayed a TGI above 100 µM.

As to `CC(C)C(C)/C=C\C(C)C1CCC2C3=CC=C4CC(O)CCC4(C)C3CCC21C` (stereo unspecified), the TGI was above 100 µM.

With `OC(c1nc2ccccc2[nH]1)C(O)C(O)C(O)c1nc2ccccc2[nH]1` (stereo unspecified), the TGI is above 100 µM.

With `CCOC(=O)c1cc2nc3ccccc3c(=O)n2c2ccccc12`, the TGI was above 10 µM.

`Cc1cc(O)c(/C=N/C(=S)NCc2ccccc2)c(=O)o1`: the TGI is above 100 µM.

On to `COc1cc2c3c(n(C)c(=O)c2cc1OC)-c1cc2c(cc1/C3=C\CCN)OCO2`, for which the GI50 was 0.426 µM and the TGI amounted to 2.11 µM.

In the next experiment the test system is COLO 205 colon. Put plainly: NCI-60 cell line screen, 48 h.
Regarding `CN(C(=O)c1ccc(C(F)(F)F)cc1)c1ccc(Oc2ccc3c(c2)cc(C(=O)N2CCN(Cc4ccc(OC(F)F)cc4)CC2)n3C)nc1`, the GI50 is 60 µM and the TGI was above 100 µM.

In the case of `Cc1cc(-c2ccc3nc(C4CCOCC4)n(CCOC(F)(F)F)c3c2)cn(C)c1=O`, the TGI worked out at 2.97 µM.

On to `Nc1ncnc2c1nnn2C1OC(CO)C(O)C1O` (stereo unspecified), for which the TGI turned out to be 2.73 µM.

Take `COc1cc(C2c3cc4c(cc3OC(C)(O)C2C)OCO4)cc(OC)c1OC` (stereo unspecified): the TGI is above 100 µM.

For `C[C@@H]1CCC2[C@@H](C)[C@@H](OCC(CO[C@H]3OC4O[C@@]5(C)CC[C@H]6[C@H](C)CCC([C@H]3C)[C@@]46OO5)OC(=O)CCC(=O)O)OC3O[C@@]4(C)CC[C@@H]1[C@]32OO4` (stereo partly specified), the GI50 is below 0.01 µM and the TGI is 12.5 µM.

Regarding `COc1cc(OC)cc(-c2cc(=O)c3c(OC)c(OC)c(OC)c(OC)c3o2)c1`, the TGI was determined as 30.6 µM.

For `COc1cc2c(c(OC)c1OC)-c1ccc(OC)c(=O)cc1C(NC(=O)c1ccc(N=[N+]=[N-])cc1)CC2` (stereo unspecified), the TGI was 0.0627 µM.

`COc1ccc([C@H]2[C@@H](F)C(=O)N2c2cc(OC)c(OC)c(OC)c2)cc1F`: the GI50 is 0.156 µM and the TGI came to 0.503 µM.

As for `CC(=O)[C@@]12O[C@@H]1CC1C3CCC4=CC(O)CCC4(C)C3CCC12C` (stereo partly specified), the GI50 was 57.4 µM and the TGI is above 100 µM.

In the case of `OCC#Cc1ccccc1C#Cc1ccccc1`, the GI50 is 19.6 µM and the TGI is 37.6 µM.

`NS(=O)(=O)c1cc(Br)c(N=Nc2ccc(O)c3ncccc23)c(Br)c1` came in with a TGI above 100 µM.

`O=C(/C=C/c1ccncc1)c1cc(Cl)ccc1O`: the GI50 was 16.8 µM and the TGI is 32.3 µM.

Take `Cc1cc(/C=C/c2ccc3cc(N(C)C)ccc3[n+]2C)c(C)n1-c1ccccc1`: the GI50 was 0.103 µM and the TGI was determined as 0.213 µM.

Take `COc1cc2c3c(n(C)c(=O)c2cc1OC)-c1cc2c(cc1/C3=C\CCCN)OCO2`: the GI50 is 7.67 µM and the TGI was above 100 µM.

`Cc1ccc(S(=O)(=O)Nc2ccccc2C(=O)c2ccc(C)c(C)c2)cc1` displayed a TGI above 100 µM.

The compound `CC(C)C(C)/C=C\C(C)C1CCC2C3=CC=C4CC(O)CCC4(C)C3CCC21C` (stereo unspecified) showed a TGI above 61.6 µM.

The compound `OC(c1nc2ccccc2[nH]1)C(O)C(O)C(O)c1nc2ccccc2[nH]1` (stereo unspecified) registered a TGI above 100 µM.

Compound `CCOC(=O)c1cc2nc3ccccc3c(=O)n2c2ccccc12` had a TGI above 10 µM.

With `Cc1cc(O)c(/C=N/C(=S)NCc2ccccc2)c(=O)o1`, the TGI is above 100 µM.

Turning to `COc1cc2c3c(n(C)c(=O)c2cc1OC)-c1cc2c(cc1/C3=C\CCN)OCO2`, the GI50 is 0.975 µM and the TGI is above 100 µM.
